This data set concerns CCRIS mutagenicity, Ames/micronucleus/aberration tests. Nature of the data set: CCRIS mutagenicity studies.
Where [1] appears, read: Test System: AMES SALMONELLA TYPHIMURIUM, Strain/Indicator: TA98, Metabolic Activation: NONE, Method: STANDARD PLATE.
[2] abbreviates: Test System: AMES SALMONELLA TYPHIMURIUM, Strain/Indicator: TA100, Metabolic Activation: NONE, Method: STANDARD PLATE.
The mark [3] stands for this setting: Test System: AMES SALMONELLA TYPHIMURIUM, Strain/Indicator: TA1535, Metabolic Activation: NONE, Method: STANDARD PLATE.
[4] abbreviates: Test System: AMES SALMONELLA TYPHIMURIUM, Strain/Indicator: TA1537, Metabolic Activation: NONE, Method: STANDARD PLATE.
[5] abbreviates: Test System: AMES SALMONELLA TYPHIMURIUM, Strain/Indicator: TA1538, Metabolic Activation: NONE, Method: STANDARD PLATE.
Setting [6] is: Test System: AMES SALMONELLA TYPHIMURIUM, Strain/Indicator: TA98, Metabolic Activation: NONE, Method: PREINCUBATION
Setting [7] is: Test System: AMES SALMONELLA TYPHIMURIUM, Strain/Indicator: TA100, Metabolic Activation: NONE, Method: PREINCUBATION

Structures are written as SMILES. The source made the active and inactive calls. The rule behind the calls is not given here.

In the case of `Nc1ccc2c(c1)C(=O)c1ccc(N)cc1C2=O`, the mutagenic call was “inactive; negative” under setting [1]; “active; positive” (Test System: AMES SALMONELLA TYPHIMURIUM, Strain/Indicator: TA98, Metabolic Activation: RAT, LIVER, S-9, AROCLOR 1254, Method: STANDARD PLATE); “inactive; negative” under setting [2]; “inactive; negative” (Test System: AMES SALMONELLA TYPHIMURIUM, Strain/Indicator: TA100, Metabolic Activation: RAT, LIVER, S-9, AROCLOR 1254, Method: STANDARD PLATE); “inactive; negative” under setting [3]; “inactive; negative” (Test System: AMES SALMONELLA TYPHIMURIUM, Strain/Indicator: TA1535, Metabolic Activation: RAT, LIVER, S-9, AROCLOR 1254, Method: STANDARD PLATE). In addition, the mutagenic call is, setting by setting: under setting [4], “inactive; negative”; (Test System: AMES SALMONELLA TYPHIMURIUM, Strain/Indicator: TA1537, Metabolic Activation: RAT, LIVER, S-9, AROCLOR 1254, Method: STANDARD PLATE) “active; positive”; under setting [5], “inactive; negative”; (Test System: AMES SALMONELLA TYPHIMURIUM, Strain/Indicator: TA1978, Metabolic Activation: RAT, LIVER, S-9, AROCLOR 1254, Method: STANDARD PLATE) “inactive; negative”.

For `C=C[Si](C)(C)CCl`, the mutagenic call runs as follows: (Test System: AMES SALMONELLA TYPHIMURIUM, Strain/Indicator: TA98, Metabolic Activation: HAMSTER, LIVER, S-9, AROCLOR 1254 (10%), Method: STANDARD PLATE) “inactive; negative”; under setting [1], “inactive; negative”; (Test System: AMES SALMONELLA TYPHIMURIUM, Strain/Indicator: TA98, Metabolic Activation: RAT, LIVER, S-9, AROCLOR 1254 (10%), Method: STANDARD PLATE) “inactive; negative”; (Test System: AMES SALMONELLA TYPHIMURIUM, Strain/Indicator: TA100, Metabolic Activation: HAMSTER, LIVER, S-9, AROCLOR 1254 (10%), Method: STANDARD PLATE) “inactive; negative”; under setting [2], “inactive; negative”; (Test System: AMES SALMONELLA TYPHIMURIUM, Strain/Indicator: TA100, Metabolic Activation: RAT, LIVER, S-9, AROCLOR 1254 (10%), Method: STANDARD PLATE) “inactive; negative”. Also, the mutagenic call is, setting by setting: (Test System: AMES SALMONELLA TYPHIMURIUM, Strain/Indicator: TA1535, Metabolic Activation: HAMSTER, LIVER, S-9, AROCLOR 1254 (10%), Method: STANDARD PLATE) “inactive; negative”; under setting [3], “inactive; negative”; (Test System: AMES SALMONELLA TYPHIMURIUM, Strain/Indicator: TA1535, Metabolic Activation: RAT, LIVER, S-9, AROCLOR 1254 (10%), Method: STANDARD PLATE) “inactive; negative”; (Test System: AMES SALMONELLA TYPHIMURIUM, Strain/Indicator: TA1537, Metabolic Activation: HAMSTER, LIVER, S-9, AROCLOR 1254 (10%), Method: STANDARD PLATE) “inactive; negative”; under setting [4], “inactive; negative”; (Test System: AMES SALMONELLA TYPHIMURIUM, Strain/Indicator: TA1537, Metabolic Activation: RAT, LIVER, S-9, AROCLOR 1254 (10%), Method: STANDARD PLATE) “inactive; negative”. For the same molecule, the mutagenic call was “inactive; negative” (Test System: AMES SALMONELLA TYPHIMURIUM, Strain/Indicator: TA1538, Metabolic Activation: HAMSTER, LIVER, S-9, AROCLOR 1254 (10%), Method: STANDARD PLATE); “inactive; negative” under setting [5]; “inactive; negative” (Test System: AMES SALMONELLA TYPHIMURIUM, Strain/Indicator: TA1538, Metabolic Activation: RAT, LIVER, S-9, AROCLOR 1254 (10%), Method: STANDARD PLATE); “inactive; negative. reevaluation of results: inconclusive” (Test System: MOUSE LYMPHOMA, Strain/Indicator: L5178Y (TK+/TK-), Metabolic Activation: NONE, Method: SUSPENSION/PLATE); “inactive; negative. reevaluation of results: negative” (Test System: MOUSE LYMPHOMA, Strain/Indicator: L5178Y (TK+/TK-), Metabolic Activation: RAT, LIVER, S-9, AROCLOR 1254, Method: SUSPENSION/PLATE).

As to `O=Cc1ccc([N+](=O)[O-])cc1[N+](=O)[O-]`, the mutagenic call by setting is: (Test System: AMES SALMONELLA TYPHIMURIUM, Strain/Indicator: TA98(1,8-DNP6), Metabolic Activation: NONE, Method: SUSPENSION/PLATE) “active; positive”; (Test System: AMES SALMONELLA TYPHIMURIUM, Strain/Indicator: TA98(NR), Metabolic Activation: NONE, Method: SUSPENSION/PLATE) “active; positive”; under setting [6], “active; positive”; (Test System: AMES SALMONELLA TYPHIMURIUM, Strain/Indicator: TA98, Metabolic Activation: NONE, Method: SUSPENSION/PLATE) “active; positive”; (Test System: AMES SALMONELLA TYPHIMURIUM, Strain/Indicator: TA98, Metabolic Activation: RAT, LIVER, S-9, PHENOBARBITAL AND 5,6-BENZOFLAVONE, Method: PREINCUBATION) “active; positive”; (Test System: AMES SALMONELLA TYPHIMURIUM, Strain/Indicator: TA100(1,8-DNP6), Metabolic Activation: NONE, Method: SUSPENSION/PLATE) “active; positive”. Further, the mutagenic call is “active; positive” (Test System: AMES SALMONELLA TYPHIMURIUM, Strain/Indicator: TA100(NR), Metabolic Activation: NONE, Method: SUSPENSION/PLATE); “active; positive” under setting [7]; “active; positive” (Test System: AMES SALMONELLA TYPHIMURIUM, Strain/Indicator: TA100, Metabolic Activation: NONE, Method: SUSPENSION/PLATE); “active; positive” (Test System: AMES SALMONELLA TYPHIMURIUM, Strain/Indicator: TA100, Metabolic Activation: RAT, LIVER, S-9, PHENOBARBITAL AND 5,6-BENZOFLAVONE, Method: PREINCUBATION).

As to `COC(=O)c1cc(OC)c2c(c1-c1c(C(=O)OC)cc(OC)c3c1OCO3)OCO2`, the mutagenic call by setting is: under setting [1], “inactive; negative”; (Test System: AMES SALMONELLA TYPHIMURIUM, Strain/Indicator: TA98, Metabolic Activation: S-9, Method: STANDARD PLATE) “inactive; negative”; under setting [2], “inactive; negative”; (Test System: AMES SALMONELLA TYPHIMURIUM, Strain/Indicator: TA100, Metabolic Activation: S-9, Method: STANDARD PLATE) “inactive; negative”; under setting [3], “inactive; negative”; (Test System: AMES SALMONELLA TYPHIMURIUM, Strain/Indicator: TA1535, Metabolic Activation: S-9, Method: STANDARD PLATE) “inactive; negative”. For the same molecule, the mutagenic call by setting is: under setting [4], “inactive; negative”; (Test System: AMES SALMONELLA TYPHIMURIUM, Strain/Indicator: TA1537, Metabolic Activation: S-9, Method: STANDARD PLATE) “inactive; negative”.

Regarding `Oc1ccc2ccc3c4ccc5ccccc5c4c4c(c3c2c1O)O4`, the mutagenic call (Test System: AMES SALMONELLA TYPHIMURIUM, Strain/Indicator: TA97, Metabolic Activation: NONE, Method: PREINCUBATION) is “active; positive”; the mutagenic call under setting [6] was “active; positive”; the mutagenic call under setting [7] is “active; positive”; the mutagenic call (Test System: AMES SALMONELLA TYPHIMURIUM, Strain/Indicator: TA104, Metabolic Activation: NONE, Method: PREINCUBATION) is “active; positive”; the mutagenic call (Test System: CHINESE HAMSTER V-79, Strain/Indicator: V-79/6-THIOGUANINE, Metabolic Activation: NONE) is “active; positive”.

Values taken from PubChem BioAssay AID1259407 (Chemical Carcinogenesis Research Information System (CCRIS), 2018).
